For five molecules, mass density and refractive index results are on record in the NIST ThermoML archive (doi:10.1021/acs.jced.6b00985).

Numbers after ± are expanded uncertainties.

For data set [1] the following is noted: 293.15 K; 101.33 kPa; Liquid; Vibrating tube method.
A short description of data set [2]: refractive index (Na D-line) (dimensionless). The following applies: 293.15 K; 101.33 kPa; Liquid; Standard Abbe refractometry.

Turning to `CCCCCCC(C)=O` [2-octanone], the mass density – broadly, mass per unit of volume – in data set [1] came out at 819.9 ± 8 kg/m3. Moreover, the refractive index (commonly a measure of how strongly the sample bends light) in data set [2] is listed as 1.4151 ± 0.0011.
In the case of `C1CCCC1` [cyclopentane], the mass density in data set [1] is 745.7 ± 8 kg/m3. The refractive index in data set [2] came out at 1.4066 ± 0.0011.
Regarding `OC1CCCC1` [cyclopentanol], the mass density in data set [1] stood at 948.7 ± 8 kg/m3. In addition, the refractive index in data set [2] was found to be 1.4531 ± 0.0011.
On to `CCCCOC(=O)/C=C\C(=O)OCCCC` [dibutyl cis-butendioate], for which, in data set [1], the mass density is 990.1 ± 8.2 kg/m3. Besides, in data set [2], the refractive index came out at 1.4452 ± 0.0012.
For `CCC(=O)O` [propanoic acid], the mass density in data set [1] was determined as 988 ± 8 kg/m3. Moreover, the refractive index in data set [2] was 1.3809 ± 0.0011.
